Reference: the OligoGym collection
HELM strings list units from the 5' end as sugar, base in round brackets, then linkage (d deoxyribose, r ribose, m 2'-O-methyl, p phosphodiester). Strings are as the collection lists them; they lack the last nucleoside at the 3' end of the tested compound. [moe] = 2'-O-(2-methoxyethyl) (MOE); [sp] = phosphorothioate linkage; [m5C] = 5-methylcytosine

What follows are substances tested against APP (assay: mouse, dose not given). Settings: ASO.

Substance	3 h FOB score [score 0-7]
RNA1{[moe](G)[sp].[moe]([m5C])p.[moe](A)p.[moe](A)p.[moe]([m5C])[sp].d(A)[sp].d(G)[sp].d(A)[sp].d(T)[sp].d([m5C])[sp].d(T)[sp].d([m5C])[sp].d(T)[sp].d(T)[sp].d(A)[sp].[moe](T)p.[moe](T)p.[moe]([m5C])[sp].[moe](T)}$$$$ (last 3' nucleoside missing)	0
RNA1{[moe](T)[sp].[moe](G)p.[moe](G)p.[moe](G)p.[moe]([m5C])[sp].d(A)[sp].d(T)[sp].d([m5C])[sp].d(A)[sp].d(T)[sp].d(T)[sp].d(T)[sp].d(T)[sp].d(T)[sp].d(G)[sp].[moe]([m5C])p.[moe](T)p.[moe]([m5C])[sp].[moe]([m5C])}$$$$ (last 3' nucleoside missing)	0
RNA1{[moe](T)[sp].[moe](G)p.[moe](T)p.[moe](T)p.[moe]([m5C])[sp].d([m5C])[sp].d(A)[sp].d(A)[sp].d(A)[sp].d(G)[sp].d(A)[sp].d(T)[sp].d(T)[sp].d([m5C])[sp].d([m5C])[sp].[moe](A)p.[moe]([m5C])p.[moe](T)[sp].[moe](T)}$$$$ (last 3' nucleoside missing)	1
RNA1{[moe](G)[sp].[moe](T)p.[moe](G)p.[moe](T)p.[moe]([m5C])[sp].d(A)[sp].d(T)[sp].d(A)[sp].d(A)[sp].d([m5C])[sp].d(A)[sp].d(T)[sp].d(T)[sp].d(T)[sp].d(A)[sp].[moe]([m5C])p.[moe](T)p.[moe]([m5C])[sp].[moe](A)}$$$$ (last 3' nucleoside missing)	0
RNA1{[moe](A)[sp].[moe]([m5C])p.[moe](A)p.[moe]([m5C])p.[moe](A)[sp].d([m5C])[sp].d(A)[sp].d(A)[sp].d(A)[sp].d([m5C])[sp].d(T)[sp].d([m5C])[sp].d(T)[sp].d(A)[sp].d([m5C])[sp].[moe]([m5C])p.[moe]([m5C])p.[moe]([m5C])[sp].[moe](T)}$$$$ (last 3' nucleoside missing)	0.5
RNA1{[moe](T)[sp].[moe]([m5C])p.[moe](T)p.[moe](T)p.[moe]([m5C])[sp].d(A)[sp].d([m5C])[sp].d(T)[sp].d([m5C])[sp].d([m5C])[sp].d([m5C])[sp].d(A)[sp].d(T)[sp].d([m5C])[sp].d(T)[sp].[moe](G)p.[moe]([m5C])p.[moe](A)[sp].[moe](T)}$$$$ (last 3' nucleoside missing)	1
RNA1{[moe](A)[sp].[moe](T)p.[moe](G)p.[moe](T)p.[moe](G)p.[moe](A)[sp].d(T)[sp].d(T)[sp].d(T)[sp].d([m5C])[sp].d(A)[sp].d([m5C])[sp].d(T)[sp].d(A)[sp].d(A)[sp].d([m5C])[sp].[moe]([m5C])p.[moe](G)[sp].[moe](G)}$$$$ (last 3' nucleoside missing)	0
RNA1{[moe](T)[sp].[moe]([m5C])p.[moe](T)p.[moe](G)p.[moe](T)[sp].d(A)[sp].d(T)[sp].d(T)[sp].d(A)[sp].d(T)[sp].d(A)[sp].d([m5C])[sp].d(T)[sp].d([m5C])[sp].d(T)[sp].[moe](G)p.[moe](G)p.[moe](G)[sp].[moe]([m5C])}$$$$ (last 3' nucleoside missing)	2.5
RNA1{[moe]([m5C])[sp].[moe]([m5C])p.[moe]([m5C])p.[moe](A)p.[moe]([m5C])[sp].d(T)[sp].d(T)[sp].d([m5C])[sp].d([m5C])[sp].d([m5C])[sp].d(A)[sp].d(T)[sp].d(T)[sp].d([m5C])[sp].d(T)[sp].[moe](G)p.[moe](G)p.[moe](A)[sp].[moe]([m5C])}$$$$ (last 3' nucleoside missing)	0.5
RNA1{[moe](A)[sp].[moe]([m5C])p.[moe](T)p.[moe]([m5C])p.[moe](G)[sp].d(A)[sp].d(A)[sp].d([m5C])[sp].d([m5C])[sp].d(A)[sp].d([m5C])[sp].d([m5C])[sp].d(T)[sp].d([m5C])[sp].d(T)[sp].[moe](T)p.[moe]([m5C])p.[moe]([m5C])[sp].[moe](A)}$$$$ (last 3' nucleoside missing)	0
RNA1{[moe](G)[sp].[moe](T)p.[moe](T)p.[moe](T)p.[moe]([m5C])[sp].d(A)[sp].d(G)[sp].d(T)[sp].d(A)[sp].d(T)[sp].d(A)[sp].d(T)[sp].d(T)[sp].d([m5C])[sp].d(T)[sp].[moe]([m5C])p.[moe](T)p.[moe](G)[sp].[moe]([m5C])}$$$$ (last 3' nucleoside missing)	0
RNA1{[moe]([m5C])[sp].[moe](T)p.[moe](T)p.[moe]([m5C])p.[moe](T)[sp].d(T)[sp].d(A)[sp].d(T)[sp].d([m5C])[sp].d(A)[sp].d(G)[sp].d([m5C])[sp].d(T)[sp].d(T)[sp].d(T)[sp].[moe](A)p.[moe](G)p.[moe](G)[sp].[moe]([m5C])}$$$$ (last 3' nucleoside missing)	1
RNA1{[moe]([m5C])[sp].[moe](T)p.[moe](T)p.[moe](A)p.[moe]([m5C])[sp].d(A)[sp].d(A)[sp].d(A)[sp].d([m5C])[sp].d(T)[sp].d([m5C])[sp].d(A)[sp].d([m5C])[sp].d([m5C])[sp].d(A)[sp].[moe](A)p.[moe]([m5C])p.[moe](T)[sp].[moe](A)}$$$$ (last 3' nucleoside missing)	0
RNA1{[moe](T)[sp].[moe](T)p.[moe](A)p.[moe]([m5C])p.[moe]([m5C])[sp].d(T)[sp].d(T)[sp].d(T)[sp].d(A)[sp].d(A)[sp].d([m5C])[sp].d(A)[sp].d(T)[sp].d(T)[sp].d([m5C])[sp].[moe]([m5C])p.[moe](T)p.[moe]([m5C])[sp].[moe](A)}$$$$ (last 3' nucleoside missing)	0
RNA1{[moe](T)[sp].[moe](G)p.[moe](G)p.[moe]([m5C])p.[moe](A)[sp].d(A)[sp].d(A)[sp].d([m5C])[sp].d(T)[sp].d([m5C])[sp].d(T)[sp].d([m5C])[sp].d(T)[sp].d(T)[sp].d(A)[sp].[moe](G)p.[moe](G)p.[moe](T)[sp].[moe](T)}$$$$ (last 3' nucleoside missing)	1.33
RNA1{[moe](A)[sp].[moe](T)p.[moe](G)p.[moe](G)p.[moe](A)[sp].d(T)[sp].d([m5C])[sp].d(T)[sp].d(G)[sp].d(A)[sp].d(A)[sp].d(T)[sp].d([m5C])[sp].d([m5C])[sp].d([m5C])[sp].[moe](A)p.[moe]([m5C])p.[moe](T)[sp].[moe](T)}$$$$ (last 3' nucleoside missing)	1
RNA1{[moe](G)[sp].[moe]([m5C])p.[moe](A)p.[moe](T)p.[moe]([m5C])[sp].d(A)[sp].d([m5C])[sp].d(T)[sp].d(T)[sp].d(A)[sp].d([m5C])[sp].d(A)[sp].d(A)[sp].d(A)[sp].d([m5C])[sp].[moe](T)p.[moe]([m5C])p.[moe](A)[sp].[moe]([m5C])}$$$$ (last 3' nucleoside missing)	0.5
RNA1{[moe](T)[sp].[moe]([m5C])p.[moe](T)p.[moe](G)p.[moe](A)[sp].d(T)[sp].d(A)[sp].d(T)[sp].d(T)[sp].d([m5C])[sp].d(A)[sp].d([m5C])[sp].d(T)[sp].d(T)[sp].d(A)[sp].[moe](T)p.[moe]([m5C])p.[moe](T)[sp].[moe](G)}$$$$ (last 3' nucleoside missing)	0
